Reference: patent publication US12502365B2 (Instytut Biologii Doswiadczalnej Im. Marcelego Nenckiego …, priority 2019, dated 2025)

Assays:
MMP-9 [1] = target: T1, MMP-9 (Rattus norvegicus, UniProt P50282); test: Inhibition of MMP-9-dependent nectin-3 cleavage in glutamate-stimulated hippocampal neuron cultures (immunoblotting); assay type: cell-based
T1 construct: stimulate neuronal cell activity leading to release of MMP-9; endogenous in cells; host or cells: primary rat hippocampal neurons, 7 DIV
Protocol: In the first non-limiting example, the compound was tested for specific inhibition of MMP-9 activity in vitro. Hippocampal neurons were prepared from newborn Wistar rats at postnatal day P0 as described previously (Habas et al., 2006). The culture medium consisted of Neurobasal Medium supplemented with B27 (Invitrogen) and 1 mM 1-glutamine, 100 U ml^−1 penicillin and 0.1 mg ml^−1 streptomycin. The cells used for these experiments were 7 DIV. […] The control cultures consisted of neurons stimulated with glutamate and of glutamate in the presence of inhibitor I (an inhibitor with proven inhibitory effect on MMP-9 activity). […] The MMP-9 activity level was evaluated by the cleavage of MMP-9 substrate-nectin-3.
Nectin-3 is a transmembrane protein predominantly expressed at post-synaptic part of the synapse (van der Kooij et al., 2014). […] We evaluated the basic amount of nectin-3 (by immunoblotting) and the presence of a cut fragment of nectin-3 (approximately 17 kDa).
For immunoblotting, cultures were homogenized in a lysis buffer containing 1 mM MgCl2, 5 mM HEPES (pH=7.4), 320 mM sucrose, 1 mM Na2F, and cOmplete™ Protease Inhibitor Cocktail (Roche) using Dounce glass homogenizer. Protein concentration was measured using BCA Protein Assay Kit (Pierce). […] For the quantification of individual bands, the scan of the photographic film was analyzed by densitometry using GeneTools software (Syngene).

MMP-9 [2] = target: T2, MMP-9 (Mus musculus, UniProt P41245); test: MMP-9-dependent nectin-3 cleavage in hippocampus after kainic acid injection (immunoblotting); assay type: in vivo, mice; conditions: 9 mg/kg i.p. 1 hour prior to KA; hippocampus 6 hours after KA
T2 construct: strongly associated with the release of MMP-9 from dendritic spines; from tissue; host or cells: mouse hippocampus (in vivo, after kainic acid)
Protocol: In a further nonlimiting example, marimastat was tested in vivo, in a mouse model of epileptogenesis (intra-hippocampal kainic acid injection). […] This is the optimal time allowing for its potential therapeutic effects. […] As a result of the KA injection, strong epileptic seizures were observed due to increased neuronal activity.
The process of developing epileptic seizures evoked by KA (epileptogenesis) is strongly associated with the release of MMP-9 from dendritic spines. […] For this purpose, after 6 hours following KA-injection the hippocampus was isolated and the immunoblotting assay was performed for the presence of cleaved form of nectin-3 protein.

[3] = test system: mouse model of epileptogenesis (intra-hippocampal kainic acid injection); test: Functional analysis in mouse model of epileptogenesis (intra-hippocampal kainic acid injection), video-EEG; assay type: in vivo, mice; conditions: for duration of the single seizure: P=0.02
Protocol: The functional analysis of therapeutic use of marimastat in mouse model of epileptogenesis (intra-hippocampal kainic acid injection) was performed. Epileptogenesis was induced by the administration of kainic acid directly into the CA1 region of the hippocampus, during stereotactic surgeries. Coordinates for CA1 were chosen according to Paxinos Mouse Brain Atlas. […] The mice were injected intraperitoneally (9 mg/kg b.w.), 3 times after administration of kainic acid at: • 1. 30 minutes • 2. 6 hours • 3. […] Each group consisted of 6 animals; the experiment was performed in two repetitions. Simultaneously, just after KA injections, mice were implanted with cranial and hippocampal electrodes for EEG registration (FIG. 3). […] Injected kainic acid stimulated the degeneration within CA1 and CA3 region, but also led to the changes within dentate gyms area. One of the most important changes observed in the epileptogenesis process was mossy fiber sprouting located in dentate gyms DG. Mossy fiber sprouting is defined as an aberrant sprouting of granule cells axons (mossy fibers) into the inner molecular layer of the dentate gyrus. This process is observed in patients with temporal lobe epilepsy (Buckmaster, 2012). Therefore, hippocampal electrode location was implanted into DG, below the injection site, according to coordinates: The electrode implantation process proceeded according to the following protocol. Stainless steel screw electrodes (Ø1.6 mm, Bilaney Consultants GmbH, Germany) were placed in the skull (Table 3; FIG. 3). A bipolar hippocampal electrode was positioned in the dentate gyms. The 2-week continuous (24 h/7 days) video-EEG (vEEG) monitoring was started immediately after KA injection. Mice were placed in PMMA cages (one mouse per cage) and connected to the recording system with commutators (SL6C, Plastics One Inc., USA). vEEG was performed using the Twin EEG recording system connected to a Comet EEG PLUS with 57-channel amplifier AS40-PLUS (Natus Medical Incorporated, USA) and filtered (high-pass filter cut-off 0.3 Hz, low-pass filter cut off 100 Hz). The behavior of the animals was recorded using a digital camera I-PRO WV-SC385 (Panasonic, Japan). As outcome measures, the present Inventors assessed the occurrence, frequency and duration of spontaneous seizures. An electroencephalographic seizure was defined as a high amplitude (>2× baseline) rhythmic discharge that clearly represented an abnormal EEG pattern that lasted >5 s. The frequency of seizures in each mouse was calculated as the number of seizures per completed EEG recording day or per week. Modified Racine's scale was used in the study (Racine, 1972): The experiment was divided into three parts: • 1) first 24 hours post-KA injection (acute response to injected convulsant) • 2) first week post-KA injection (acute response to injected convulsant) • 3) 4 weeks after KA injection (epileptogenesis upon injected convulsant—chronic changes) In each stage, several parameters were calculated: seizure duration (in seconds), seizure score (according the Racine scale), seizure number (per animal/per day). Additionally, in the first 24 hours, the time between the kainic acid injection and first epileptic seizure was also estimated.

[4] = test system: MMP-1, MMP-2, MMP-3, MMP-7 and MMP-9; conditions: cited from earlier work
[5] = humans, oral; cited from earlier work
[6] = single dose up to 800 mg or repeated dose up to 200 mg twice a day for a week; cited from earlier work
[7] = test system: murine cancer models: melanoma, hemangioma, ovarian carcinoma, colorectal, breast and pancreatic cancer; conditions: cited from earlier work
[8] = 4 weeks after KA injection, not significant

T1 sequence (P50282 108-708): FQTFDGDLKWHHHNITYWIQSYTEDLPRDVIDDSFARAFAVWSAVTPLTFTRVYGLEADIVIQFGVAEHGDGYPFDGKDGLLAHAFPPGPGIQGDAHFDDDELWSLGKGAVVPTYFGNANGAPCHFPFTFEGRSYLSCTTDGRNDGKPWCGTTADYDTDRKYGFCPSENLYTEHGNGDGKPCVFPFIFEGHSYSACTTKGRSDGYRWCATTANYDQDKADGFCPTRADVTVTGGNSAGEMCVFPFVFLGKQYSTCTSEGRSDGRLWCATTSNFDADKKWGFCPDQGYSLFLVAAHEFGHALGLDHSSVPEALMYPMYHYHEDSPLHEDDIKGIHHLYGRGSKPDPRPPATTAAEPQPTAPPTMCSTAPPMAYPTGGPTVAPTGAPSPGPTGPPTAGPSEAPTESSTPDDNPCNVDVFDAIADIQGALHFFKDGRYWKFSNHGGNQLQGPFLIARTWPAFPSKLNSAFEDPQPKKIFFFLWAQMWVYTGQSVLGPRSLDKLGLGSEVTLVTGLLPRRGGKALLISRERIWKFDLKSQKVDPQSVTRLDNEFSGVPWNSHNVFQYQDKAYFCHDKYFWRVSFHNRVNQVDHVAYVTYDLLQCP
T2 sequence (P41245 108-730): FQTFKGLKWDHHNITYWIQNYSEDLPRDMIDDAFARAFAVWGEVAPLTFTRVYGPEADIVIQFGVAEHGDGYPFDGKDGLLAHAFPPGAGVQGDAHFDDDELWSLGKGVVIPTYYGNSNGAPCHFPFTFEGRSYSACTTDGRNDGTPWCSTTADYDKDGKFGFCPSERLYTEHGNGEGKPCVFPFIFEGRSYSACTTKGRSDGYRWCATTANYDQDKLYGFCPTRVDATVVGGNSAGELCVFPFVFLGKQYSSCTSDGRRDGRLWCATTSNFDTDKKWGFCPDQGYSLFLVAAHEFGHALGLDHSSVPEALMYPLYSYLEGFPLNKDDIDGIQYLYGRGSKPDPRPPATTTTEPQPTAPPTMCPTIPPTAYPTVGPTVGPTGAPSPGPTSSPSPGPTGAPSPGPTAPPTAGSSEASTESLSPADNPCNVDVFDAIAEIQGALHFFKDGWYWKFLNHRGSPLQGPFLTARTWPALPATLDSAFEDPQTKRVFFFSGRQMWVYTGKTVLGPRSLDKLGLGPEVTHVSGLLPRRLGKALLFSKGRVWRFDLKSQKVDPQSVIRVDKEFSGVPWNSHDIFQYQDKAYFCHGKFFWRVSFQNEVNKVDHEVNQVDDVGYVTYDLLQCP

SMILES: CNC(=O)[C@@H](NC(=O)[C@H](CC(C)C)[C@H](O)C(=O)NO)C(C)(C)C [marimastat, Marimastat]
- MMP-9-dependent cleavage of nectin-3 in vitro (MMP-9 [1]; hippocampal dissociated cell cultures, 7 DIV, glutamate 5 μM, 17 kDa nectin-3 fragment): inhibits
- minimum effective dose inhibiting nectin-3 cleavage (MMP-9 [1]; tested at 5 nM, 0.5 μM, 5 μM, 40 μM and 100 μM, 30 min before glutamate): 0.5 µM
- MMP-9-dependent nectin-3 enzymatic cleavage in vivo (optical density of the 17 kDa nectin-3 fragment) (MMP-9 [2]): specifically reduced
- duration of the single seizure ([3]; 4 weeks after KA injection): inhibited
- seizure number [3, 8]: slightly decreased
- seizure score [3, 8]: slightly decreased
- latency to the 1st seizure ([3]; first 24 hours post-KA): no differences
- seizure duration ([3]; first 24 hours post-KA): no differences
- seizure score (Racine scale) ([3]; first 24 hours post-KA, 9 mg/kg i.p. at 30 min, 6 h, 24 h, P=0.0016): significantly decreased
- seizure number ([3]; first 24 hours post-KA, P=0.005): significantly decreased
- seizure number ([3]; first week post-KA): did not change
- seizure score ([3]; first week post-KA): did not change
- duration of the single seizure ([3]; first week post-KA): significantly reduced
- inhibitory activity against major MMPs [4]: potent broad-spectrum inhibitory activity
- bioavailability [5]: high and predictable
- half-life [5]: approximately 15 hours
- side effects in healthy subjects [6]: did not show any side effects
- tumor progression [7]: inhibited tumor progression
